This passage reports IC50 results from ChEMBL document CHEMBL1147476, “Synthesis and evaluation of aminophosphinic acid derivatives as inhibitors of renal dipeptidase” (Bioorg Med Chem Lett, 2004).

Each structure is given as a SMILES string.

For orientation: IC50 means the concentration at which inhibition is half-maximal.

This assay has as its target T1, Dipeptidase 1 (Homo sapiens, UniProt P16444).
T1 sequence (P16444 whole entry): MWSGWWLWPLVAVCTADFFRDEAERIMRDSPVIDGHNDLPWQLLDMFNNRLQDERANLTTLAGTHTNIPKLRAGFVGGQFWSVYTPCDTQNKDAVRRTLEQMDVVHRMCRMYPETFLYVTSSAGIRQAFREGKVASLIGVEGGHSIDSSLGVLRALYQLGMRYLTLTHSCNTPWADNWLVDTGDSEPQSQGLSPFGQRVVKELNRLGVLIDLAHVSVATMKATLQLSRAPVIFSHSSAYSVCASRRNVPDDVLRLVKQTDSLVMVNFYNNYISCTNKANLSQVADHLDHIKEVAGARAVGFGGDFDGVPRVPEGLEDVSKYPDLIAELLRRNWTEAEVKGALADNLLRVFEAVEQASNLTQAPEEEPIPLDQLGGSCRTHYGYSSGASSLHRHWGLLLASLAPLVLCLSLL
Description: Concentration required to inhibit renal dipeptidase (RDP) by 50% in crude lysates prepared from human colon cancer.
`Nc1ccc(/C=C(\CP(=O)(O)C(N)CC2CCCCC2)C(=O)O)cc1` (centres undefined) came in with a 50% inhibitory concentration (IC50) of 70 nM.
The compound `NC(CC1CCCCC1)P(=O)(O)C/C(=C\c1ccccc1I)C(=O)O` (centres undefined) came in with an IC50 of 100 nM.
The figure for `Nc1ccc(/C=C(/CP(=O)(O)C(N)CC2CCCCC2)C(=O)O)cc1` (centres undefined) is 150 nM; for `NC(CC1CCCCC1)P(=O)(O)C/C(=C/c1ccc(F)cc1)C(=O)O` (centres undefined) it is 15 nM.
`NC(CC1CCCCC1)P(=O)(O)C/C(=C/c1cccc(I)c1)C(=O)O` (centres undefined): 250 nM corresponded to half-maximal inhibition (IC50). Compared with the last compound, the IC50 is about 17-fold higher.
Compound `NC(CC1CCCCC1)P(=O)(O)C/C(=C/c1ccc(C(F)(F)F)cc1)C(=O)O` (centres undefined) showed an IC50 of 200 nM.
In the case of `NC(CC1CCCCC1)P(=O)(O)C/C(=C/c1ccc(Br)cc1)C(=O)O` (centres undefined), the IC50 was found to be 30 nM. This IC50 is about 6.7-fold lower than that of the compound before.
The figure for `NC(CC1CCCCC1)P(=O)(O)C/C(=C\c1cccc(I)c1)C(=O)O` (centres undefined) is 45 nM; for `NC(CC1CCCCC1)P(=O)(O)C/C(=C/c1ccccc1I)C(=O)O` (centres undefined) it is 1000 nM; for `NC(CC1CCCCC1)P(=O)(O)C/C(=C/c1ccc(F)c(Br)c1)C(=O)O` (centres undefined) it is 3000 nM.
In turn, `NC(CC1CCCCC1)P(=O)(O)C/C(=C\c1ccc(F)c(Br)c1)C(=O)O` (centres undefined) displayed an IC50 of 40 nM. Compared with the last compound, the IC50 is about 75-fold lower.
The figure for `NC(CC1CCCCC1)P(=O)(O)C/C(=C\c1ccc(Br)cc1)C(=O)O` (centres undefined) is 6 nM; for `NC(CC1CCCCC1)P(=O)(O)C/C(=C/c1ccc(I)cc1)C(=O)O` (centres undefined) it is 25 nM; for `NC(CC1CCCCC1)P(=O)(O)C/C(=C\c1ccc(Cl)c(Cl)c1)C(=O)O` (centres undefined) it is 20 nM.
The figure for `NC(CC1CCCCC1)P(=O)(O)C/C(=C/c1ccc(F)c(Cl)c1)C(=O)O` (centres undefined) is 350 nM; for `NC(CC1CCCCC1)P(=O)(O)C/C(=C/c1ccc(Cl)c(Cl)c1)C(=O)O` (centres undefined) it is 200 nM; for `NC(CC1CCCCC1)P(=O)(O)C/C(=C\c1ccc(I)cc1)C(=O)O` (centres undefined) it is 8 nM.
Take `NC(CC1CCCCC1)P(=O)(O)C/C(=C\c1ccc(F)c(Cl)c1)C(=O)O` (centres undefined): it took 30 nM to reach half-maximal inhibition (IC50).
The figure for `NC(CC1CCCCC1)P(=O)(O)C/C(=C\c1ccc(F)cc1)C(=O)O` (centres undefined) is 5 nM.
